Target: T1, mAChR M1 (UniProt P11229)
T1 sequence (P11229 1-460): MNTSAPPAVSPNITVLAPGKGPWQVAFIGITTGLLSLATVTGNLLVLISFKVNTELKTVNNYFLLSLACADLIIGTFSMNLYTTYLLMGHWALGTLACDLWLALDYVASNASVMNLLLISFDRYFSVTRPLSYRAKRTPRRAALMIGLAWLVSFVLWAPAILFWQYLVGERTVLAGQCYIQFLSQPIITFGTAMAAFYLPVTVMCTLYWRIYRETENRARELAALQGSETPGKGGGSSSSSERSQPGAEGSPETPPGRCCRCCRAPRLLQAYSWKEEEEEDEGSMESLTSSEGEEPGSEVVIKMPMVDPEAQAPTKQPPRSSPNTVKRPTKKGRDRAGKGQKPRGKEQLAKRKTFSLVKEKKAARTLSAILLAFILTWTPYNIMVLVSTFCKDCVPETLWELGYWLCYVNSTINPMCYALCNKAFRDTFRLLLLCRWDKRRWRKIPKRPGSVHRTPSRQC
Test: mAChR M1 cell-based functional assay (calcium mobilization, potentiation of EC20 acetylcholine response)
Details: for Emax (%): % ACh maximum at 30 μM, mAChR M1-expressing CHO-K1 cells, calcium flux; for pEC50 / EC50: positive allosteric modulation of EC20 ACh response, mAChR M1 CHO-K1 cells; for pEC50: <5 estimated where no plateau; for EC50: >10 μM estimated where no plateau, read-out: EC50
Description: Chinese hamster ovary (CHO-K1) cells stably expressing rat (r)M1 were purchased from the American Type Culture Collection and cultured according to their indicated protocol. […] To make stable rM2, hM2, rM3, hM4, and rM4 cell lines for use in calcium mobilization assays, these cells also were stably transfected with a chimeric G-protein (Gqi5) (provided by B. R. Conklin, University of California, San Francisco) using Lipofectamine 2000. rM1, hM1, rM3, hM3, rM5, and hM5 cells were grown in Ham's F-12 medium containing 10% heat-inactivated fetal bovine serum (FBS), 20 mM HEPES, and 50 μg/mL G418 sulfate. rM2-Gqi5, hM2-Gqi5, and hM4-Gqi5 cells were grown in the same medium also containing 500 μg/mL Hygromycin B. Stable rM4-Gqi5 cells were grown in DMEM containing 10% heat-inactivated FBS, 20 mM HEPES, 400 μg/mL G418 sulfate, and 500 μg/mL Hygromycin B.
For high throughput measurement of agonist-evoked increases in intracellular calcium, CHO-K1 cells stably expressing muscarinic receptors were plated in growth medium lacking G418 and hygromycin at 15,000 cells/20 μL/well in Greiner 384-well black-walled, tissue culture (TC)-treated, clear-bottom plates (VWR). Cells were incubated overnight at 37° C. and 5% CO2. […] Compound master plates were formatted in an 11 point CRC format (1:3 dilutions) in 100% DMSO with a starting concentration of 10 mM using the BRAVO liquid handler (Agilent). Test compound CRCs were then transferred to daughter plates (240 nL) using the Echo acoustic plate reformatter (Labcyte, Sunnyvale, Calif.) and then diluted into assay buffer (40 μL) to a 2× stock using a Thermo Fisher Combi (Thermo Fisher Scientific, Waltham, Mass.).
Calcium flux was measured using the Functional Drug Screening System (FDSS) 6000 (Hamamatsu Corporation, Tokyo, Japan) as an increase in the fluorescent static ratio. Compounds were applied to cells (20 μL, 2×) using the automated system of the FDSS 6000 at 4 s into the 300 s protocol and the data were collected at 1 Hz. […] Agonist activity was analyzed as a concentration-dependent increase in calcium mobilization upon compound addition. Positive allosteric modulator activity was analyzed as a concentration-dependent increase in the EC20 acetylcholine response. Antagonist activity was analyzed as a concentration-dependent decrease in the EC80 acetylcholine response. Concentration-response curves were generated using a four-parameter logistical equation in XLfit curve fitting software (IDBS, Bridgewater, N.J.) for Excel (Microsoft, Redmond, Wash.) or Prism (GraphPad Software, Inc., San Diego, Calif.).
The above described assay was also operated in a second mode where an appropriate fixed concentration of the present compounds were added to the cells after establishment of a fluorescence baseline for about 3 seconds, and the response in cells was measured. […] Data were reduced as described above and the EC50 values for the agonist in the presence of test compound were determined by nonlinear curve fitting. A decrease in the EC50 value of the agonist with increasing concentrations of the present compounds (a leftward shift of the agonist concentration-response curve) is an indication of the degree of muscarinic positive allosteric modulation at a given concentration of the present compound. An increase in the EC50 value of the agonist with increasing concentrations of the present compounds (a rightward shift of the agonist concentration response curve) is an indication of the degree of muscarinic antagonism at a given concentration of the present compound. The second mode also indicates whether the present compounds also affect the maximum response of the muscarinic receptor to agonists.
The calcium mobilization assay was also used to determine “efficacy”.

Row | Emax (%) | pEC50 | EC50 | SMILES
1 | 82% | 5.96 | 1.1 µM | Cn1cc2cc(-c3ccc(CN4Cc5ncccc5C4=O)c(F)c3)ccc2n1 [Example B1]
2 | 78% | 5.82 | 1.5 µM | Cc1nn(C)cc1-c1ccc(CN2Cc3ccccc3C2=O)c(F)c1 [Example B2]
3 | 34% | 5.60 | 2.5 µM | Cn1cc2cc(-c3ccc(CN4Cc5ccccc5S4(=O)=O)c(F)c3)ccc2n1 [Example B5]
4 | 38% | 5.59 | 2.6 µM | O=C1c2ccccc2CN1Cc1ccc(-c2ccc3cnccc3c2)cc1F [Example B6]
5 | 63% | 5.59 | 2.6 µM | Cn1cc(-c2ccc(CN3Cc4cc(F)cc(F)c4C3=O)c(F)c2)cn1 [Example B7]
6 | 79% | 5.55 | 2.8 µM | Cn1cc(-c2ccc(CN3Cc4ccncc4C3=O)c(F)c2)cn1 [Example B8]
7 | 83% | 5.55 | 2.8 µM | Cn1cc(-c2ccc(CN3Cc4ncccc4C3=O)c(F)c2)cn1 [Example B9]
8 | 62% | 5.51 | 3.1 µM | Cn1ccc2ccc(-c3ccc(CN4Cc5ccccc5C4=O)c(F)c3)cc21 [Example B10]
9 | 71% | 5.47 | 3.4 µM | O=C1c2ccccc2CN1Cc1ccc(-c2ccncc2)cc1F [Example B11]
10 | 36% | 5.42 | 3.8 µM | Cn1cc(-c2ccc(CN3Cc4ccccc4C3=O)c(C(F)(F)F)c2)cn1 [Example B12]
11 | 35% | <5.00 | > 10 µM | CC(c1ccc(-c2cnn(C)c2)cc1F)N1Cc2ccccc2C1=O (stereo not drawn) [Example B13, 2-(1-(2-fluoro-4-(1-methyl-1H-pyrazol-4-yl)phenyl)ethyl)isoindolin-1-one]
12 | 36% | <5.00 | > 10 µM | O=C1c2cccnc2CN1Cc1ccc(-c2ccnc(F)c2)cc1F [Example B14]
13 | 37% | <5.00 | > 10 µM | Cn1cc(-c2ccc(CN3Cc4ccccc4C3=O)nc2)cn1 [Example B15]
14 | 38% | <5.00 | > 10 µM | O=C1c2ccccc2CN1Cc1ccc(-c2c[nH]nc2C(F)(F)F)cc1F [Example B16]
15 | 40% | <5.00 | > 10 µM | Cn1cc(-c2ccc(CN3Cc4ccccc4C3=O)cn2)cn1 [Example B17]
16 | 40% | <5.00 | > 10 µM | Cn1cc(-c2cnc(CN3Cc4ncccc4C3=O)c(F)c2)cn1 [Example B18]
17 | 40% | <5.00 | > 10 µM | Cn1nccc1-c1ccc(CN2Cc3ccccc3C2=O)c(F)c1 [Example B19]
18 | 43% | <5.00 | > 10 µM | Cn1cc(-c2cnc(CN3Cc4cccnc4C3=O)c(F)c2)cn1 [Example B20]
19 | 43% | <5.00 | > 10 µM | Cn1cc(-c2cnc(CN3Cc4ccccc4C3=O)c(F)c2)cn1 [Example B21]
20 | 51% | <5.00 | > 10 µM | O=C1c2ccccc2CN1Cc1ccc(-n2ccnc2)cc1F [Example B22]
21 | 63% | <5.00 | > 10 µM | Cn1cc(-c2ccc(CN3Cc4ccccc4S3(=O)=O)c(F)c2)cn1 [Example B23]

Row | Emax (%) | pEC50 | EC50 | SMILES
22 | 64% | <5.00 | > 10 µM | Cn1ncc2ccc(-c3ccc(CN4Cc5ccccc5C4=O)c(F)c3)cc21 [Example B24]
23 | 66% | <5.00 | > 10 µM | Cn1cc(-c2ccc(CN3Cc4cccnc4C3=O)c(F)c2)cn1 [Example B25]
24 | 58% | 6.1 | 0.794 µM | Cn1ncc2cc(-c3ccc(CN4Cc5ncccc5C4=O)c(F)c3)ccc21 [Example B27]
25 | 34% | <5.00 | > 10 µM | O=C1c2cccnc2CN1Cc1ccc(-c2ccc3cc[nH]c3c2)cc1F [Example B28]
26 | 58% | 5.80 | 1.59 µM | Cn1ncc2c(-c3ccc(CN4Cc5ncccc5C4=O)c(F)c3)cccc21 [Example B29]
27 | 40% | 5.46 | 3.47 µM | O=C1c2cccnc2CN1Cc1ccc(-c2ccc(Cl)nc2)cc1F [Example B30]
28 | 35% | 5.34 | 4.57 µM | O=C1c2cccnc2CN1Cc1ccc(-c2cncc(Cl)c2)cc1F [Example B31]
29 | 74% | 6.07 | 0.851 µM | Cn1cc2c(-c3ccc(CN4Cc5ncccc5C4=O)c(F)c3)cccc2n1 [Example B32]
30 | 31% | <5.00 | > 10 µM | COc1ncccc1-c1ccc(CN2Cc3ncccc3C2=O)c(F)c1 [Example B33]
31 | 37% | 5.60 | 2.51 µM | Cc1cc(-c2ccc(CN3Cc4ncccc4C3=O)c(F)c2)cnc1F [Example B34]
32 | 80% | 5.71 | 1.95 µM | Cn1cc2ccc(-c3ccc(CN4Cc5ncccc5C4=O)c(F)c3)cc2n1 [Example B35]
33 | 58% | 6.28 | 0.525 µM | O=C1c2cccnc2CN1Cc1ccc(-c2ccc3[nH]ncc3c2)cc1F [Example B36]
34 | 31% | 6.41 | 0.389 µM | O=C1c2cccnc2CN1Cc1ccc(-c2cnc3ccccc3c2)cc1F [Example B37]
35 | 26% | <5.00 | > 10 µM | O=C1c2cccnc2CN1Cc1ccc(-c2cccc3cccnc23)cc1F [Example B38]
36 | 31% | 5.98 | 1.05 µM | CN(C)c1ccc(-c2ccc(CN3Cc4ncccc4C3=O)c(F)c2)cn1 [Example B39]
37 | 70% | 6.13 | 0.741 µM | O=C1c2cccnc2CN1Cc1ccc(-c2ccc3cn[nH]c3c2)cc1F [Example B40]
38 | 70% | 5.33 | 4.68 µM | O=C1c2cccnc2CN1Cc1ccc(-c2ccncc2)cc1F [Example B41]
39 | 41% | 5.44 | 3.63 µM | O=C1c2cccnc2CN1Cc1ccc(-c2cccc3ncccc23)cc1F [Example B42]
40 | 47% | <5.00 | > 10 µM | COc1cncc(-c2ccc(CN3Cc4ncccc4C3=O)c(F)c2)c1 [Example B43]
41 | 65% | 6.04 | 0.912 µM | O=C1c2cccnc2CN1Cc1ccc(-c2ccc3cnccc3c2)cc1F [Example B44]
